Consider 3 compounds from ChEMBL document CHEMBL1125758, “(Acyloxy)alkyl carbamate prodrugs of norfloxacin” (J Med Chem, 1991).

The nature of data set [1]: Solubility in phosphate buffer (0.1 M) at 25 degree centigrade(pH 7.4). The data set is classed as physicochemical.
Data set [2] is described as follows: Half life in a medium of dog serum. The data set is classed as ADME, organism-based, Canis lupus familiaris.
Data set [3] in a line: Solubility in citrate buffer (0.1 M) at 25 degree centigrade(pH 5). The data set is classed as physicochemical. The note with it: for solubility: citrate buffer, read-out: S.
Data set [4] is described as follows: Solubility in bicarbonate buffer (0.05 M) at 25 degree centigrade(pH 8.5). The data set is classed as physicochemical. The following applies: read-out: S.
Data set [5] is described as follows: Half life in a medium of rat serum. The data set is classed as ADME, organism-based.
The test system of data set [6] is Morganella morganii. As to the kind of experiment: Antibacterial activity against Prot. morganii SmR(2833). It counts as functional.
In data set [7] the test system is Klebsiella aerogenes. As to the kind of experiment: Antibacterial activity against Ent. aerogenes(2828). It counts as functional.
Data set [8] concerns Staphylococcus aureus. As to the kind of experiment: Antibacterial activity against Staphylococcus aureus GmR Meth(4310). It counts as functional.
The subject of data set [9] is Escherichia coli. The experiment in a line: Antibacterial activity against Escherichia coli TEM 2+(4351). The data set is classed as functional.
The subject of another data set is Monkey. As to the kind of experiment: % dose recovered in urine. The data set is classed as functional, Cercopithecidae.
For data set [10], the system named is Proteus mirabilis. As to the kind of experiment: Antibacterial activity against Prot. mirabilis GmR(2830). It counts as functional.
For data set [11], the system named is Pseudomonas aeruginosa. As to the kind of experiment: Antibacterial activity against Ps. aeruginoa(2835). The data set is classed as functional.
In data set [12] the test system is Rhesus monkey. As to the kind of experiment: (§1) Serum conc at 3 hours following 25 mg/kg dose. It counts as functional, Macaca mulatta.
The subject of data set [13] is Staphylococcus aureus. The experiment in a line: Antibacterial activity against Staphylococcus aureus (2865). The data set is classed as functional.
The subject of data set [14] is Escherichia coli. The experiment in a line: Antibacterial activity against Escherichia coli (2891). The data set is classed as functional.
The next data set deals with Serratia marcescens. As to the kind of experiment: Antibacterial activity against Ser. marcescens (2840). The data set is classed as functional.
Data set [15] is described as follows: Solubility in water at 25 degree Centigrade. The data set is classed as physicochemical. The note with it: read-out: S.
The test system of another data set is Salmonella typhimurium. The experiment in a line: Antibacterial activity against Sal. Typhimurium (3860). It counts as functional, Salmonella enterica subsp. enterica serovar Typhimurium. The note with it: Salmonella enterica.
Data set [16] has as its system Klebsiella pneumoniae. The experiment in a line: Antibacterial activity against Klebsiella pneumoniae K1+(4354). It counts as functional.
Data set [17] can be described thus: Half life in a medium of phosphate buffer in pH 7.4. The data set is classed as ADME.
Data set [18] has as its system Rhesus monkey. As to the kind of experiment: Urine conc 0-24 hours following 25mg/kg dose. It counts as functional, Macaca mulatta.
The subject of data set [19] is Rhesus monkey. The experiment in a line: (§2) Urine conc 0-5 hours following 25 mg/kg dose. It counts as functional, Macaca mulatta.
In data set [20] the test system is Enterobacter cloacae. The experiment in a line: Antibacterial activity against Ent. cloacae 99+(2646). The data set is classed as functional. The note with it: P99.
Data set [21] relates to Escherichia coli. The experiment in a line: Antibacterial activity against Escherichia coli TEM 2+ DC2(4352). It counts as functional.
The test system of data set [22] is Staphylococcus aureus. The experiment in a line: Antibacterial activity against Staphylococcus aureus (2868). The data set is classed as functional.
Data set [23] has as its system Klebsiella pneumoniae. As to the kind of experiment: Antibacterial activity against Klebsiella pneumoniae (4005). It counts as functional.
Data set [24] has as its system Pseudomonas aeruginosa. The experiment in a line: Antibacterial activity against Ps. aeruginoa(4279). The data set is classed as functional.
Data set [25] is described as follows: Half life in a medium of rat intestinal homogenate. It counts as ADME.
In data set [26] the test system is Enterobacter cloacae. The experiment in a line: Antibacterial activity against Ent. cloacae P99-(2647). It counts as functional.
The subject of data set [27] is Proteus vulgaris. As to the kind of experiment: Antibacterial activity against Prot. vulgaris(2829). It counts as functional.
Data set [28] deals with Pseudomonas aeruginosa. As to the kind of experiment: Antibacterial activity against Ps. aeruginosa RPL11+(3350). It counts as functional.
For the next data set, the system named is Streptococcus sp. The experiment in a line: Antibacterial activity against Strep. Faecalis (2864). It counts as functional.
Data set [29] can be described thus: Half life in a medium of human serum. It counts as ADME, organism-based.
The subject of data set [30] is Escherichia coli. The experiment in a line: Antibacterial activity against Escherichia coli DC2(4353). The data set is classed as functional.
For data set [31], the system named is Staphylococcus aureus. As to the kind of experiment: Antibacterial activity against Staphylococcus aureus GmR Meth (4310). It counts as functional.
For data set [32], the system named is Pseudomonas aeruginosa. As to the kind of experiment: Antibacterial activity against Ps. aeruginosa (2835). The data set is classed as functional.
The nature of data set [33]: as §1. The data set is classed as ADME, organism-based, Macaca mulatta. The arrangement: dose 25 mg/kg. The following applies: rhesus monkey, read-out: Concentration_plasma.
In data set [34] the test system is Proteus vulgaris. As to the kind of experiment: Antibacterial activity against Prot. vulgaris (2829). The data set is classed as functional.
For data set [35], the system named is Escherichia coli. As to the kind of experiment: Antibacterial activity against Escherichia coli TEM 2+ (4351). The data set is classed as functional.
Data set [36] in a line: Urine conc 0-24 hours following 25 mg/kg dose. Set-up: dose 25 mg/kg. The note with it: rhesus monkey, in vivo. The data set is classed as ADME, organism-based, Macaca mulatta.
A further data set has as its system Enterococcus faecalis. As to the kind of experiment: Antibacterial activity against Strep. faecalis (2864). It counts as functional.
Data set [37] relates to Morganella morganii. The experiment in a line: Antibacterial activity against Prot. morganii SmR (2833). The data set is classed as functional.
In data set [38] the test system is Enterobacter cloacae. As to the kind of experiment: Antibacterial activity against Ent. cloacae 99+ (2646). It counts as functional. The note with it: P99.
The test system of data set [39] is Escherichia coli. The experiment in a line: Antibacterial activity against Escherichia coli TEM 2+ DC2 (4352). It counts as functional.
Data set [40] concerns Enterobacter cloacae. The experiment in a line: Antibacterial activity against Ent. cloacae P99- (2647). The data set is classed as functional.
The test system of data set [41] is Escherichia coli. The experiment in a line: Antibacterial activity against Escherichia coli DC2 (4353). It counts as functional.
Data set [42] has as its system Pseudomonas aeruginosa. As to the kind of experiment: Antibacterial activity against Ps. aeruginosa RPL11+ (3350). It counts as functional.
Data set [43] is described as follows: as §2. The following applies: rhesus monkey, in vivo. Set-up: dose 25 mg/kg. It counts as ADME, organism-based, Macaca mulatta.
Data set [44] relates to Proteus mirabilis. The experiment in a line: Antibacterial activity against Prot. mirabilis GmR (2830). It counts as functional.
The test system of data set [45] is Klebsiella aerogenes. The experiment in a line: Antibacterial activity against Ent. aerogenes (2828). The data set is classed as functional.
Data set [46] relates to Pseudomonas aeruginosa. As to the kind of experiment: Antibacterial activity against Ps. aeruginosa (4279). It counts as functional.
Data set [47] relates to Klebsiella pneumoniae. As to the kind of experiment: Antibacterial activity against Klebsiella pneumoniae K1+ (4354). The data set is classed as functional.

Converted amounts (≈) assume the structure as drawn. Bounds are passed on as bounds.

As to `CCn1cc(C(=O)O)c(=O)c2cc(F)c(N3CCN(C(=O)OC(C)OC(C)=O)CC3)cc21` (centres undefined), the solubility in data set [1] was 60 µg/mL (≈ 134 µM); in [3], 30 µg/mL (≈ 66.8 µM); in data set [4], 150 µg/mL (≈ 334 µM). Besides, the half-life in data set [2] worked out at 6 min; in data set [5], 1.5 min.
On to `CCn1cc(C(=O)O)c(=O)c2cc(F)c(N3CCN(C(=O)OCOC(C)=O)CC3)cc21`, for which the minimal inhibitory concentration (MIC) in the data set with Morganella morganii [6] was 8 µg/mL (≈ 18.4 µM); against Klebsiella aerogenes [7] it was > 128 µg/mL; against Staphylococcus aureus [8] it was 2 µg/mL (≈ 4.59 µM); with Escherichia coli [9], > 128 µg/mL; in the data set on Proteus mirabilis [10], > 128 µg/mL; in the data set on Pseudomonas aeruginosa [11], > 128 µg/mL. For the same compound, the MIC in the data set with Staphylococcus aureus [13] is 2 µg/mL (≈ 4.59 µM); with Escherichia coli [14], 128 µg/mL (≈ 294 µM); against Serratia marcescens it was > 128 µg/mL; against Salmonella typhimurium, > 128 µg/mL; against Klebsiella pneumoniae [16], > 128 µg/mL; with Enterobacter cloacae [20], > 128 µg/mL. The MIC in the data set with Escherichia coli [21] was > 128 µg/mL; in the data set with Staphylococcus aureus [22], 1 µg/mL (≈ 2.3 µM); in the data set on Klebsiella pneumoniae [23] it was 32 µg/mL (≈ 73.5 µM); against Pseudomonas aeruginosa [24], > 128 µg/mL; in the data set on Enterobacter cloacae [26], > 128 µg/mL; in the data set with Proteus vulgaris [27], > 128 µg/mL. Besides, the MIC with Pseudomonas aeruginosa [28], against Streptococcus sp. and against Escherichia coli [30] was > 128 µg/mL in each case. Besides, the solubility in data set [1] was 50 µg/mL (≈ 115 µM); in data set [15] it was 60 µg/mL (≈ 138 µM); in data set [3] it was 5 µg/mL (≈ 11.5 µM); in data set [4] it was 410 µg/mL (≈ 942 µM). In the data set on Monkey, the Dose came to 7.23%. Also, the Concentration_plasma with Rhesus monkey [12] turned out to be 0.36 µg/mL. The half-life amounted to 6 min in data set [2]; 128 h in data set [17]; 1.5 min in data set [5]; 2.6 min in data set [25]; 116 min in data set [29]. Moreover, the Concentration_urine in the data set with Rhesus monkey [18] worked out at 21.97 µg/mL; in the data set on Rhesus monkey [19], 25.03 µg/mL.
As to `CCn1cc(C(=O)O)c(=O)c2cc(F)c(N3CCNCC3)cc21` [NORFLOXACIN], the MIC against Staphylococcus aureus [31] came out at 1 µg/mL (≈ 3.13 µM); with Pseudomonas aeruginosa [32], 1 µg/mL (≈ 3.13 µM); with Proteus vulgaris [34], 0.06 µg/mL (≈ 0.188 µM); in the data set with Escherichia coli [35], 0.03 µg/mL (≈ 0.0939 µM); with Escherichia coli [35] (Escherichia coli, read-out: MIC), 0.03 µg/mL (≈ 0.0939 µM); against Enterococcus faecalis, 8 µg/mL (≈ 25.1 µM). For the same compound, the MIC in the data set with Morganella morganii [37] was 0.06 µg/mL (≈ 0.188 µM); in the data set on Staphylococcus aureus [13], 0.25 µg/mL (≈ 0.783 µM); in the data set with Escherichia coli [14], 0.06 µg/mL (≈ 0.188 µM); against Enterobacter cloacae [38], 1 µg/mL (≈ 3.13 µM); with Serratia marcescens, 4 µg/mL (≈ 12.5 µM); against Escherichia coli [39], 0.5 µg/mL (≈ 1.57 µM). Moreover, the MIC in the data set on Salmonella typhimurium was found to be 0.5 µg/mL (≈ 1.57 µM); against Enterobacter cloacae [40] it was 0.25 µg/mL (≈ 0.783 µM); against Escherichia coli [41], 0.5 µg/mL (≈ 1.57 µM); against Pseudomonas aeruginosa [42], 1 µg/mL (≈ 3.13 µM); with Proteus mirabilis [44], 0.06 µg/mL (≈ 0.188 µM); in the data set on Staphylococcus aureus [22] it was 1 µg/mL (≈ 3.13 µM). Further, the MIC against Klebsiella aerogenes [45] was found to be 0.5 µg/mL (≈ 1.57 µM); in the data set with Pseudomonas aeruginosa [46], 1 µg/mL (≈ 3.13 µM); in the data set with Klebsiella pneumoniae [23], 0.06 µg/mL (≈ 0.188 µM); against Klebsiella pneumoniae [47] it was 8 µg/mL (≈ 25.1 µM). Besides, the concentration at 3 h in data set [33] was determined as 760 ng/mL. In addition, the Concentration_urine in data set [36] stood at 33780 ng/mL; in data set [43], 175860 ng/mL. Besides, the solubility in [1] was found to be 200 µg/mL (≈ 626 µM); in [15] it was 190 µg/mL (≈ 595 µM); in data set [4], 210 µg/mL (≈ 658 µM). For the same compound, the Dose in the data set on Monkey is listed as 16.3%. Also, the S in data set [3] (buffer) was determined as 8 mg/mL.

As a reminder, the half-life is how long it takes for the measured level to halve. What is called MIC is the smallest concentration in the dilution series that meets the test's criterion for growth inhibition.
